Measurements taken from ChEMBL document CHEMBL4270591, “Exploitation of new chalcones and 4H-chromenes as agents for cancer treatment” (Eur J Med Chem, 2018).

test system: not listed separately; test: Cytotoxicity against human MCF10A cells assessed as cell viability at 10 uM after 72 hrs by sulforhodamine B assay relative to control; type: cell-based, MCF-10A; settings: read-out: Activity

Point of comparison: `N#CC1=C(N)Oc2c(F)cc(F)cc2C1CC(=O)c1ccccc1` (stereo not drawn), viability at 72 h, 10 µM 53.8%. Against it:
- O=C(/C=C/c1cc(F)cc(F)c1O)c1ccccc1 — lower, 37.4%
- COc1ccc(O)c(/C=C/C(=O)c2ccc(Cl)cc2)c1 — lower, 35.7%
- COc1cc(Br)cc2c1OC(N)=C(C#N)C2CC(=O)c1ccc(Cl)cc1 (stereo not drawn) — lower, 36.8%
- COc1cc(Br)cc2c1OC(N)=C(C#N)C2CC(=O)c1ccccc1 (stereo not drawn) — lower, 45.9%
- COc1cc(Br)cc(/C=C/C(=O)c2ccccc2)c1O — lower, 34.4%
- COC(=O)C1=C(N)Oc2c(OC)cc(Br)cc2C1CC(=O)c1ccc(Cl)cc1 (stereo not drawn) — lower, 40.9%
- Cc1ccc(C(=O)CC2C(C#N)=C(N)Oc3ccc(Br)cc32)cc1 (stereo not drawn) — higher, 133%

test system: MCF7; test: Anticancer activity against human MCF7 cells assessed as cell viability at 30 uM after 72 hrs by sulforhodamine B assay relative to control; type: functional; settings: MCF7, 72 h, read-out: Activity

Point of comparison: `COc1cc(Br)cc2c1OC(N)=C(C#N)C2CC(=O)c1ccccc1` (stereo not drawn), viability at 30 µM 36.7%. Against it:
- O=C(/C=C/c1cc(F)cc(F)c1O)c1ccccc1 — higher, 37.6%
- COc1ccc(O)c(/C=C/C(=O)c2ccc(Cl)cc2)c1 — lower, 29.3%
- N#CC1=C(N)Oc2c(F)cc(F)cc2C1CC(=O)c1ccccc1 (stereo not drawn) — higher, 76.9%
- COc1cc(Br)cc2c1OC(N)=C(C#N)C2CC(=O)c1ccc(Cl)cc1 (stereo not drawn) — lower, 33.3%
- COc1cc(Br)cc(/C=C/C(=O)c2ccccc2)c1O — lower, 28.1%
- COC(=O)C1=C(N)Oc2c(OC)cc(Br)cc2C1CC(=O)c1ccc(Cl)cc1 (stereo not drawn) — lower, 33.8%
- Cc1ccc(C(=O)CC2C(C#N)=C(N)Oc3ccc(Br)cc32)cc1 (stereo not drawn) — lower, 32.3%

test system: Hs-578T; test: Anticancer activity against human Hs 578T cells assessed as cell viability at 30 uM after 72 hrs by sulforhodamine B assay relative to control; type: functional; settings: read-out: Activity

Point of comparison: `Cc1ccc(C(=O)CC2C(C#N)=C(N)Oc3ccc(Br)cc32)cc1` (stereo not drawn), viability at 30 µM 46.3%. Against it:
- O=C(/C=C/c1cc(F)cc(F)c1O)c1ccccc1 — higher, 114%
- COc1ccc(O)c(/C=C/C(=O)c2ccc(Cl)cc2)c1 — higher, 102%
- N#CC1=C(N)Oc2c(F)cc(F)cc2C1CC(=O)c1ccccc1 (stereo not drawn) — higher, 144%
- COc1cc(Br)cc2c1OC(N)=C(C#N)C2CC(=O)c1ccc(Cl)cc1 (stereo not drawn) — higher, 90.7%
- COc1cc(Br)cc2c1OC(N)=C(C#N)C2CC(=O)c1ccccc1 (stereo not drawn) — higher, 155%
- COc1cc(Br)cc(/C=C/C(=O)c2ccccc2)c1O — higher, 106%
- COC(=O)C1=C(N)Oc2c(OC)cc(Br)cc2C1CC(=O)c1ccc(Cl)cc1 (stereo not drawn) — higher, 90.2%

test system: Hs-578T; test: Anticancer activity against human Hs 578T cells assessed as cell viability at 10 uM after 72 hrs by sulforhodamine B assay relative to control; type: functional; settings: read-out: Activity

Point of comparison: `Cc1ccc(C(=O)CC2C(C#N)=C(N)Oc3ccc(Br)cc32)cc1` (stereo not drawn), viability at 10 µM 88.8%. Against it:
- O=C(/C=C/c1cc(F)cc(F)c1O)c1ccccc1 — higher, 96.5%
- COc1ccc(O)c(/C=C/C(=O)c2ccc(Cl)cc2)c1 — higher, 106%
- N#CC1=C(N)Oc2c(F)cc(F)cc2C1CC(=O)c1ccccc1 (stereo not drawn) — higher, 92.4%
- COc1cc(Br)cc2c1OC(N)=C(C#N)C2CC(=O)c1ccc(Cl)cc1 (stereo not drawn) — higher, 90.7%
- COc1cc(Br)cc2c1OC(N)=C(C#N)C2CC(=O)c1ccccc1 (stereo not drawn) — higher, 100%
- COc1cc(Br)cc(/C=C/C(=O)c2ccccc2)c1O — lower, 46.9%
- COC(=O)C1=C(N)Oc2c(OC)cc(Br)cc2C1CC(=O)c1ccc(Cl)cc1 (stereo not drawn) — lower, 63%

test system: MCF7; test: Anticancer activity against human MCF7 cells assessed as cell viability at 10 uM after 72 hrs by sulforhodamine B assay relative to control; type: functional; settings: MCF7, 72 h, read-out: Activity

Point of comparison: `COc1cc(Br)cc2c1OC(N)=C(C#N)C2CC(=O)c1ccc(Cl)cc1` (stereo not drawn), viability at 10 µM 49.6%. Against it:
- O=C(/C=C/c1cc(F)cc(F)c1O)c1ccccc1 — higher, 110%
- COc1ccc(O)c(/C=C/C(=O)c2ccc(Cl)cc2)c1 — higher, 86.9%
- N#CC1=C(N)Oc2c(F)cc(F)cc2C1CC(=O)c1ccccc1 (stereo not drawn) — higher, 99.6%
- COc1cc(Br)cc2c1OC(N)=C(C#N)C2CC(=O)c1ccccc1 (stereo not drawn) — higher, 99.1%
- COc1cc(Br)cc(/C=C/C(=O)c2ccccc2)c1O — higher, 67%
- COC(=O)C1=C(N)Oc2c(OC)cc(Br)cc2C1CC(=O)c1ccc(Cl)cc1 (stereo not drawn) — higher, 80.3%
- Cc1ccc(C(=O)CC2C(C#N)=C(N)Oc3ccc(Br)cc32)cc1 (stereo not drawn) — higher, 69%

test system: not listed separately; test: Cytotoxicity against human MCF10A cells assessed as cell viability at 30 uM after 72 hrs by sulforhodamine B assay relative to control; type: cell-based, MCF-10A; settings: read-out: Activity

Point of comparison: `COc1cc(Br)cc(/C=C/C(=O)c2ccccc2)c1O`, viability at 72 h, 30 µM 40.7%. Against it:
- O=C(/C=C/c1cc(F)cc(F)c1O)c1ccccc1 — higher, 41.4%
- COc1ccc(O)c(/C=C/C(=O)c2ccc(Cl)cc2)c1 — higher, 48%
- N#CC1=C(N)Oc2c(F)cc(F)cc2C1CC(=O)c1ccccc1 (stereo not drawn) — higher, 128%
- COc1cc(Br)cc2c1OC(N)=C(C#N)C2CC(=O)c1ccc(Cl)cc1 (stereo not drawn) — higher, 41.6%
- COc1cc(Br)cc2c1OC(N)=C(C#N)C2CC(=O)c1ccccc1 (stereo not drawn) — higher, 45.9%
- COC(=O)C1=C(N)Oc2c(OC)cc(Br)cc2C1CC(=O)c1ccc(Cl)cc1 (stereo not drawn) — higher, 47.8%
- Cc1ccc(C(=O)CC2C(C#N)=C(N)Oc3ccc(Br)cc32)cc1 (stereo not drawn) — lower, 33.5%
